Measured values reported in US10166218B2, “3-(1H-indol-2-yl)-1H-pyrazolo[3,4-C]pyridines and therapeutic uses thereof” (Samumed, LLC, priority 2015, dated 2019).

Legend:
Format in all cases: cell-based
IL-6 (THP-1 cells) = assay: Inhibition of IL-6 in LPS-stimulated THP-1 human monocyte cells (HTRF); conditions: inhibition of IL-6 in LPS-stimulated THP-1 cells, HTRF, 10-point dose-response starting from 10 μM
Method: Human monocyte cell line (THP-1 cells; Catalog # TIB-202, ATCC, Manassas, Va.) were cultured in Roswell Park Memorial Institute (RPMI) 1640 Medium (Catalog #21870-100, Buffalo, N.Y.) with 1% L-glutamine, 1% HEPES, 1% Sodium Pyruvate, 2% Sodium Bicarbonate supplemented with 100 units/mL penicillin, 50 μg/mL streptomycin, 2-mercaptoethanol (0.05 mM) [basal medium] and 10% fetal bovine serum (Catalog #16140089, Life Technologies, Carlsbad, Calif.) at 37° C. and 5% CO2.
THP-1 cells were cultured in basal media with 1% FBS for 24 hours before the start of the assay. Each compound was dissolved in DMSO as a 10 mM stock and used to prepare compound source plates. Serial dilution (1:3, 10-point dose-response curves starting from 10 μM) and compound transfer was performed using the ECHO 550 (Labcyte, Sunnyvale, Calif.) into 384-well white low volume assay plates (Greiner Bio-One) with appropriate DMSO backfill for a final DMSO concentration of 0.1%. THP-1 cells were plated at 5000 cells/well in the 384-well plates and incubated at 37° C. for 2 h. 500 ng/mL of LPS was added after 2 hours and cells were incubated for another 22 hours at 37° C. Plates were spun in a centrifuge for 1 minute at […] and a mixture of anti-IL6 XL665, and anti-IL6 Cryptate diluted in reconstitution buffer (Cisbio Inc.) was added to each well. Following incubation for 3 hrs at room temperature, Homogeneous Time-Resolved Fluorescence (HTRF) was measured using the Envision (Perkin Elmer) at 665 nm and […]. The ratio of fluorescence at 665 nm to 620 nm was used as a readout for IL6 quantification. All samples were processed in duplicate. Readings were normalized to DMSO treated cells and normalized activities were utilized for EC50 calculations using the dose-response log (inhibitor) vs. response-variable slope (four parameters) nonlinear regression feature available in GraphPad Prism 5.0 (or Dotmatics). For EC50 of >10 μM, the percent inhibition at 10 μM is provided.

[1] = test system: primary human fibroblasts derived from IPF patients (LL29 cells) treated with TGF-β1; α-smooth muscle actin (αSMA); assay: Inhibition of the fibrotic process: αSMA staining in TGF-β1 treated primary human fibroblasts from IPF patients (LL29 cells); conditions: Fibroblast, 96 h, TGF-β1 20 ng/mL, 4 days, % cells positive for αSMA
Text: Representative compounds were screened using primary human fibroblasts (derived from IPF patients) treated with TGF-β1 to determine their ability to inhibit the fibrotic process.
Primary human fibroblasts derived from IPF patients (LL29 cells) [^1Xiaoqiu Liu, et. al., “Fibrotic Lung Fibroblasts Show Blunted Inhibition by cAMP Due to Deficient cAMP Response Element-Binding Protein Phosphorylation”, Journal of Pharmacology and Experimental Therapeutics (2005), 315(2), 678-687; ^2Watts, K. L., et. al., “RhoA signaling modulates cyclin D1 expression in human lung fibroblasts; implications for idiopathic pulmonary fibrosis”, Respiratory Research (2006), 7(1), 88] were obtained from American Type Culture Collection (ATCC) and expanded in F12 medium supplemented with 15% Fetal Bovine Serum and Penicillin/Streptomycin.
Each compound was dissolved in DMSO as a 10 mM stock and used to prepare compound source plates. Serial dilution (1:2, 11-point dose-response curves from 10 μM to 1.87 nM) and compound transfer was performed using the ECHO 550 (Labcyte, Sunnyvale, Calif.) into 384-well clear bottom assay plates (Greiner Bio-One) with appropriate DMSO backfill for a final DMSO concentration of 0.1%. LL29 cells are plated at 1,500 cells/well in 80 μL/well F12 medium supplemented with 1% Fetal Bovine Serum. One hour after addition of the cells, TGF-β1 (Peprotech; 20 ng/mL) was added to the plates to induce fibrosis (ref. 1 and 2 above). Wells treated with TGF-β1 and containing DMSO were used as controls. Cells were incubated at 37° C. and 5% CO2 for 4 days. Following incubation for 4 days, SYTOX green nucleic acid stain (Life Technologies [Thermo Fisher Scientific]) was added to the wells at a final concentration of 1 μM and incubated at room temperature for 30 min. Cells were then fixed using 4% formaldehyde (Electron Microscopy Sciences), washed 3 times with PBS followed by blocking and permeabilization using 3% Bovine Serum Albumin (BSA; Sigma) and 0.3% Triton X-100 (Sigma) in PBS. Cells were then stained with antibody specific to α-smooth muscle actin (αSMA; Abcam) (ref. 1 and 2 above) in 3% Bovine Serum Albumin (BSA; Sigma) and 0.3% Triton X-100 (Sigma) in PBS, and incubated overnight at 4° C. Cells were then washed 3 times with PBS, followed by incubation with Alexa Flor-647 conjugated secondary antibody (Life Technologies [Thermo Fisher Scientific]) and DAPI at room temperature for 1 hour. Cells were then washed 3 times with PBS and plates were sealed for imaging. αSMA staining was imaged by excitation at 630 nm and emission at 665 nm and quantified using the Compartmental Analysis program on the CellInsight CX5 (Thermo Scientific). Dead or apoptotic cells were excluded from analysis based on positive SYTOX green staining. % of total cells positive for αSMA were counted in each well and normalized to the average of 11 wells treated with TGF-β1 on the same plate using Dotmatics' Studies Software. The normalized averages (fold change over untreated) of 3 replicate wells for each compound concentration were used to create dose-responses curves and EC50 values were calculated using non-linear regression curve fit in the Dotmatics' Studies Software. For EC50 of >10 μM, the percent inhibition at 10 μM is provided.

[2] = test system: Wnt activity (Sp5-Luc reporter, TCF/LEF binding sites) in SW480 colon carcinoma cells; assay: Screening assay for Wnt activity: Sp5-Luc reporter gene assay in stably transduced SW480 cells; conditions: Homo sapiens, overnight incubation
Text: The screening assay for Wnt activity is described as follows. Reporter cell lines can be generated by stably transducing cancer cell lines (e.g., colon cancer) or primary cells (e.g., IEC-6 intestinal cells) with a lentiviral construct that includes a Wnt-responsive promoter driving expression of the firefly luciferase gene.
SW480 colon carcinoma cells were transduced with a lentiviral vector expressing luciferase with a human Sp5 promoter consisting of a sequence of eight TCF/LEF binding sites. SW480 cells stably expressing the Sp5-Luc reporter gene and a hygromycin resistance gene were selected by treatment with 150 μg/mL of hygromycin for 7 days. These stably transduced SW480 cells were expanded in cell culture and used for all further screening activities. Each compound was dissolved in DMSO as a 10 mM stock and used to prepare compound source plates. Serial dilution (1:3, 10-point dose-response curves starting from 10 μM) and compound transfer was performed using the ECHO 550 (Labcyte, Sunnyvale, Calif.) into 384-well white solid bottom assay plates (Greiner Bio-One) with appropriate DMSO backfill for a final DMSO concentration of 0.1%. For Sp5-Luc reporter gene assays, the cells were plated at 4,000 cells/well in 384-well plates with medium containing 1% fetal bovine serum and incubated overnight at 37° C. and 5% CO2. Following incubation, 20 μl of BrightGlo luminescence reagent (Promega) was added to each well of the 384-well assay plates. The plates were placed on an orbital shaker for 2 min and then luminescence was quantified using the Envision (Perkin Elmer) plate reader. Readings were normalized to DMSO only treated cells, and normalized activities were utilized for EC50 calculations using the dose-response log (inhibitor) vs. response-variable slope (four parameters) nonlinear regression feature available in GraphPad Prism 5.0 (or Dotmatics). For EC50 of >10 μM, the percent inhibition at 10 μM is provided.

SW480 colon cancer cells = assay: Cell viability assay (CellTiter-Blue) in SW480 colon cancer cells; conditions: Homo sapiens, 96 h, four days, CellTiter-Blue
Method: Representative compounds were screened using the following assay procedure to assess the effect on cell viability as described below.
Each compound was dissolved in DMSO as a 10 mM stock and used to prepare compound source plates. Serial dilution (1:3, 8-point dose-response curves from 10 μM to 0.0045 μM) and compound transfer was performed using the ECHO 550 (Labcyte, Sunnyvale, Calif.) into 96-well clear bottom, black-walled plates (Corning-Costar).
Approximately 2×10^3 SW480 colon cancer cells were seeded into each well and allowed to incubate in the presence or absence of compound for four days at 37° C./5% CO2. Eight replicates of DMSO-treated cells served as controls and cells treated with compound were performed in duplicate.
After incubation, 20 μL of CellTiter-Blue (Promega) was added to each well allowed to incubate for approximately 3 hours. This reagent was a buffered solution which contains resazurin, metabolically active cells were able to reduce rezarurin (blue) into resorufin (pink) which was highly fluorescent. This measured fluorescence was used as a readout for cell viability.
After incubation, the plates were read at Ex 560 nm Em 590 nm (Cytation 3, BioTek). Dose-response curves were generated and EC50 concentration values were calculated using non-linear regression curve fit in the GraphPad Prism (San Diego, Calif.) or Dotmatics' Studies Software (Bishops Stortford, UK). For EC50 of >10 μM, the percent inhibition at 10 μM is provided.

EC50 (IL-6 (THP-1 cells))	EC50 [2]	EC50 (SW480 colon cancer cells)	SMILES	EC50 [1]
2920 nM	570 nM	4070 nM	CCC(=O)Nc1cncc(-c2cc3c(-c4cc5c(-c6cccc(F)c6)cccc5[nH]4)n[nH]c3cn2)c1 [Compound 1, N-(5-(3-(4-(3-Fluorophenyl)-1H-indol-2-yl)-1H-pyrazolo[3,4-c]pyridin-5-yl)pyridin-3-yl)propionamide]	529 nM
7520 nM	1350 nM	4930 nM	CN(C)Cc1cncc(-c2cc3c(-c4cc5c(-c6cccc(F)c6)cccc5[nH]4)n[nH]c3cn2)c1 [Compound 13, 1-(5-(3-(4-(3-Fluorophenyl)-1H-indol-2-yl)-1H-pyrazolo[3,4-c]pyridin-5-yl)pyridin-3-yl)-N,N-dimethylmethanamine]	2200 nM
1870 nM	1970 nM	3920 nM	CC(C)(C)CC(=O)Nc1cncc(-c2cc3c(-c4cc5c(-c6cccc(F)c6)cccc5[nH]4)n[nH]c3cn2)c1 [Compound 16, N-(5-(3-(4-(3-Fluorophenyl)-1H-indol-2-yl)-1H-pyrazolo[3,4-c]pyridin-5-yl)pyridin-3-yl)-3,3-dimethylbutanamide]	640 nM
3090 nM	1030 nM	3950 nM	Fc1cccc(-c2cccc3[nH]c(-c4n[nH]c5cnc(-c6cncc(CN7CCC(F)(F)C7)c6)cc45)cc23)c1 [Compound 26, 5-(5-((3,3-Difluoropyrrolidin-1-yl)methyl)pyridin-3-yl)-3-(4-(3-fluorophenyl)-1H-indol-2-yl)-1H-pyrazolo[3,4-c]pyridine]	92 nM
3600 nM	2240 nM	3530 nM	Fc1cccc(-c2cccc3[nH]c(-c4n[nH]c5cnc(-c6ccccn6)cc45)cc23)c1 [Compound 28, 3-(4-(3-Fluorophenyl)-1H-indol-2-yl)-5-(pyridin-2-yl)-1H-pyrazolo[3,4-c]pyridine]	1180 nM
1630 nM	872 nM	5960 nM	CC(C)(C)C(=O)Nc1cncc(-c2cc3c(-c4cc5c(-c6ccc(F)cc6)cccc5[nH]4)n[nH]c3cn2)c1 [Compound 36, N-(5-(3-(4-(4-Fluorophenyl)-1H-indol-2-yl)-1H-pyrazolo[3,4-c]pyridin-5-yl)pyridin-3-yl)pivalamide]	1010 nM
2570 nM	740 nM	909 nM	Fc1ccccc1-c1cccc2[nH]c(-c3n[nH]c4cnc(-c5cccnc5)cc34)cc12 [Compound 60, 3-(4-(2-Fluorophenyl)-1H-indol-2-yl)-5-(pyridin-3-yl)-1H-pyrazolo[3,4-c]pyridine]	90 nM
3100 nM	494 nM	1610 nM	CC(C)Nc1cncc(-c2cc3c(-c4cc5c(-c6ccccc6F)cccc5[nH]4)n[nH]c3cn2)c1 [Compound 68, 5-(3-(4-(2-Fluorophenyl)-1H-indol-2-yl)-1H-pyrazolo[3,4-c]pyridin-5-yl)-N-isopropylpyridin-3-amine]	215 nM
3210 nM	1700 nM	4430 nM	CC(C)(C)CC(=O)Nc1cncc(-c2cc3c(-c4cc5c(-c6ccccc6F)cccc5[nH]4)n[nH]c3cn2)c1 [Compound 72, N-(5-(3-(4-(2-Fluorophenyl)-1H-indol-2-yl)-1H-pyrazolo[3,4-c]pyridin-5-yl)pyridin-3-yl)-3,3-dimethylbutanamide]	701 nM
422 nM	137 nM	1070 nM	FC1(F)CCN(Cc2cncc(-c3cc4c(-c5cc6c(-c7cccnc7)cccc6[nH]5)n[nH]c4cn3)c2)C1 [Compound 110, 5-(5-((3,3-Difluoropyrrolidin-1-yl)methyl)pyridin-3-yl)-3-(4-(pyridin-3-yl)-1H-indol-2-yl)-1H-pyrazolo[3,4-c]pyridine]	81 nM
1080 nM	469 nM	6980 nM	CC(C)CC(=O)Nc1cncc(-c2cc3c(-c4cc5c(-c6ccncc6)cccc5[nH]4)n[nH]c3cn2)c1 [Compound 114, 3-Methyl-N-(5-(3-(4-(pyridin-4-yl)-1H-indol-2-yl)-1H-pyrazolo[3,4-c]pyridin-5-yl)pyridin-3-yl)butanamide]	33 nM
